Assay results published in ChEMBL document CHEMBL1132527, “Synthesis, structural characterization and antitumor activity evaluations of copper complex with tetraazamacrocyclic ligand” (Bioorg Med Chem Lett, 1999).

What was measured:
Type in all cases: functional, cell-based
P388 [1] = assay: In vitro antitumor activity against P388 tumor cell lines at 10e-5 mol/L conentation; conditions: Mus musculus
BEL-7404 tumor cell line [2] = assay: In vitro antitumor activity against BEL-7404 tumor cell lines at 10e-5 mol/L conentation; conditions: Homo sapiens
BEL-7404 tumor cell line [3] = assay: In vitro antitumor activity against BEL-7404 tumor cell lines at 10e-4 mol/L conentation; conditions: Homo sapiens
BEL-7404 tumor cell line [4] = assay: In vitro antitumor activity against BEL-7404 tumor cell lines at 10e-8 mol/L conentation; conditions: Homo sapiens
BEL-7404 tumor cell line [5] = assay: In vitro antitumor activity against BEL-7404 tumor cell lines at 10e-7 mol/L conentation; conditions: Homo sapiens
P388 [6] = assay: In vitro antitumor activity against P388 tumor cell lines at 10e-4 mol/L conentation; conditions: Mus musculus
BEL-7404 tumor cell line [7] = assay: In vitro antitumor activity against BEL-7404 tumor cell lines at 10e-6 mol/L conentation; conditions: Homo sapiens

Substance: Copper complex with 1,4,7,10-tetrakis(2-cyanolethyl-)-l,4,7,10-tetraazacyclododecane
- inhibition (P388 [1]): 96.4%
- inhibition (BEL-7404 tumor cell line [2]): 75.6%
- inhibition (BEL-7404 tumor cell line [3]): 63.3%
- inhibition (BEL-7404 tumor cell line [4]): 10%
- inhibition (BEL-7404 tumor cell line [5]): 5.6%
- inhibition (P388 [6]): 100%
- inhibition (BEL-7404 tumor cell line [7]): 78%
